Results from PubChem BioAssay (NCI).
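GI50 = concentration required for 50% inhibition of growth. The concentration for full growth arrest is given as TGI.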

Key:
Assay in all cases: NCI-60 cell line screen, 384-well format
SF-295 CNS = test system: SF-295 CNS
A549 NSCLC = test system: A549 NSCLC
OVCAR-4 ovarian = test system: OVCAR-4 ovarian
CAKI-1 renal = test system: CAKI-1 renal
OVCAR-3 ovarian = test system: OVCAR-3 ovarian
SR leukemia = test system: SR leukemia
NCI-H322M lung = test system: NCI-H322M lung
DU-145 prostate = test system: DU-145 prostate
OVCAR-5 ovarian = test system: OVCAR-5 ovarian
UACC-62 melanoma = test system: UACC-62 melanoma
SF-268 CNS = test system: SF-268 CNS
MDA-MB-231 breast = test system: MDA-MB-231 breast
CCRF-CEM leukemia = test system: CCRF-CEM leukemia
HS 578T breast = test system: HS 578T breast
RXF 393 renal = test system: RXF 393 renal
M14 melanoma = test system: M14 melanoma
SNB-19 CNS = test system: SNB-19 CNS
HCT-15 colon = test system: HCT-15 colon
IGROV1 ovarian = test system: IGROV1 ovarian
MOLT-4 leukemia = test system: MOLT-4 leukemia
NCI-H226 lung = test system: NCI-H226 lung
TK-10 renal = test system: TK-10 renal
MALME-3M melanoma = test system: MALME-3M melanoma
SK-MEL-28 melanoma = test system: SK-MEL-28 melanoma
ACHN renal = test system: ACHN renal
NCI-H522 lung = test system: NCI-H522 lung
RPMI-8226 leukemia = test system: RPMI-8226 leukemia
NCI-H460 NSCLC = test system: NCI-H460 NSCLC
NCI-H23 lung = test system: NCI-H23 lung
SNB-75 CNS = test system: SNB-75 CNS
MDA-MB-468 breast = test system: MDA-MB-468 breast
UACC-257 melanoma = test system: UACC-257 melanoma
HOP-62 NSCLC = test system: HOP-62 NSCLC
KM12 colon = test system: KM12 colon
U251 glioblastoma = test system: U251 glioblastoma
SW-620 colon = test system: SW-620 colon
A498 renal = test system: A498 renal
EKVX NSCLC = test system: EKVX NSCLC
PC-3 prostate = test system: PC-3 prostate
SN12C renal = test system: SN12C renal
COLO 205 colon = test system: COLO 205 colon
786-0 renal = test system: 786-0 renal
BT-549 breast = test system: BT-549 breast
MCF7 breast = test system: MCF7 breast
SK-MEL-2 melanoma = test system: SK-MEL-2 melanoma
NCI/ADR-RES ovarian = test system: NCI/ADR-RES ovarian
HL-60(TB) leukemia = test system: HL-60(TB) leukemia
HOP-92 NSCLC = test system: HOP-92 NSCLC
HCC-2998 colon = test system: HCC-2998 colon
OVCAR-8 ovarian = test system: OVCAR-8 ovarian
SF-539 CNS = test system: SF-539 CNS
MDA-MB-435 melanoma = test system: MDA-MB-435 melanoma
SK-OV-3 ovarian = test system: SK-OV-3 ovarian
T-47D breast = test system: T-47D breast
SK-MEL-5 melanoma = test system: SK-MEL-5 melanoma
HT29 colon = test system: HT29 colon

COc1c2occc2cc2ccc(=O)oc12
GI50 (SF-295 CNS): > 100 µM | TGI (SF-295 CNS): > 100 µM | GI50 (A549 NSCLC): > 100 µM | TGI (A549 NSCLC): > 100 µM | GI50 (OVCAR-4 ovarian): > 100 µM | TGI (OVCAR-4 ovarian): > 100 µM | GI50 (CAKI-1 renal): > 100 µM | TGI (CAKI-1 renal): > 100 µM | GI50 (OVCAR-3 ovarian): > 100 µM | TGI (OVCAR-3 ovarian): > 100 µM | GI50 (SR leukemia): > 100 µM | TGI (SR leukemia): > 100 µM | GI50 (NCI-H322M lung): > 100 µM | TGI (NCI-H322M lung): > 100 µM | GI50 (DU-145 prostate): > 100 µM | TGI (DU-145 prostate): > 100 µM | GI50 (OVCAR-5 ovarian): > 100 µM | TGI (OVCAR-5 ovarian): > 100 µM | GI50 (UACC-62 melanoma): > 100 µM | TGI (UACC-62 melanoma): > 100 µM | GI50 (SF-268 CNS): > 100 µM | TGI (SF-268 CNS): > 100 µM | GI50 (MDA-MB-231 breast): > 100 µM | TGI (MDA-MB-231 breast): > 100 µM | GI50 (CCRF-CEM leukemia): > 100 µM | TGI (CCRF-CEM leukemia): > 100 µM | GI50 (HS 578T breast): > 100 µM | TGI (HS 578T breast): > 100 µM | GI50 (RXF 393 renal): > 100 µM | TGI (RXF 393 renal): > 100 µM | GI50 (M14 melanoma): > 100 µM | TGI (M14 melanoma): > 100 µM | GI50 (SNB-19 CNS): > 100 µM | TGI (SNB-19 CNS): > 100 µM | GI50 (HCT-15 colon): > 100 µM | TGI (HCT-15 colon): > 100 µM | GI50 (IGROV1 ovarian): > 100 µM | TGI (IGROV1 ovarian): > 100 µM | GI50 (MOLT-4 leukemia): > 100 µM | TGI (MOLT-4 leukemia): > 100 µM | GI50 (NCI-H226 lung): 55.4 µM | TGI (NCI-H226 lung): > 100 µM | GI50 (TK-10 renal): 81.6 µM | TGI (TK-10 renal): > 100 µM | GI50 (MALME-3M melanoma): > 100 µM | TGI (MALME-3M melanoma): > 100 µM | GI50 (SK-MEL-28 melanoma): > 100 µM | TGI (SK-MEL-28 melanoma): > 100 µM | GI50 (ACHN renal): > 100 µM | TGI (ACHN renal): > 100 µM | GI50 (NCI-H522 lung): 60.9 µM | TGI (NCI-H522 lung): > 100 µM | GI50 (RPMI-8226 leukemia): > 100 µM | TGI (RPMI-8226 leukemia): > 100 µM | GI50 (NCI-H460 NSCLC): > 100 µM | TGI (NCI-H460 NSCLC): > 100 µM | GI50 (NCI-H23 lung): > 100 µM | TGI (NCI-H23 lung): > 100 µM | GI50 (SNB-75 CNS): 73.3 µM | TGI (SNB-75 CNS): > 100 µM | GI50 (MDA-MB-468 breast): 39.8 µM | TGI (MDA-MB-468 breast): > 100 µM | GI50 (UACC-257 melanoma): > 100 µM | TGI (UACC-257 melanoma): > 100 µM | GI50 (HOP-62 NSCLC): > 100 µM | TGI (HOP-62 NSCLC): > 100 µM | GI50 (KM12 colon): > 100 µM | TGI (KM12 colon): > 100 µM | GI50 (U251 glioblastoma): > 100 µM | TGI (U251 glioblastoma): > 100 µM | GI50 (SW-620 colon): > 100 µM | TGI (SW-620 colon): > 100 µM | GI50 (A498 renal): > 100 µM | TGI (A498 renal): > 100 µM | GI50 (EKVX NSCLC): 93.1 µM | TGI (EKVX NSCLC): > 100 µM | GI50 (PC-3 prostate): > 100 µM | TGI (PC-3 prostate): > 100 µM | GI50 (SN12C renal): > 100 µM | TGI (SN12C renal): > 100 µM | GI50 (COLO 205 colon): > 100 µM | TGI (COLO 205 colon): > 100 µM | GI50 (786-0 renal): > 100 µM | TGI (786-0 renal): > 100 µM | GI50 (BT-549 breast): > 100 µM | TGI (BT-549 breast): > 100 µM | GI50 (MCF7 breast): > 100 µM | TGI (MCF7 breast): > 100 µM | GI50 (SK-MEL-2 melanoma): > 100 µM | TGI (SK-MEL-2 melanoma): > 100 µM | GI50 (NCI/ADR-RES ovarian): > 100 µM | TGI (NCI/ADR-RES ovarian): > 100 µM | GI50 (HL-60(TB) leukemia): > 100 µM | TGI (HL-60(TB) leukemia): > 100 µM | GI50 (HOP-92 NSCLC): > 100 µM | TGI (HOP-92 NSCLC): > 100 µM | GI50 (HCC-2998 colon): > 100 µM | TGI (HCC-2998 colon): > 100 µM | GI50 (OVCAR-8 ovarian): > 100 µM | TGI (OVCAR-8 ovarian): > 100 µM | GI50 (SF-539 CNS): > 100 µM | TGI (SF-539 CNS): > 100 µM | GI50 (MDA-MB-435 melanoma): > 100 µM | TGI (MDA-MB-435 melanoma): > 100 µM | GI50 (SK-OV-3 ovarian): > 100 µM | TGI (SK-OV-3 ovarian): > 100 µM | GI50 (T-47D breast): > 100 µM | TGI (T-47D breast): > 100 µM | GI50 (SK-MEL-5 melanoma): > 100 µM | TGI (SK-MEL-5 melanoma): > 100 µM | GI50 (HT29 colon): > 100 µM | TGI (HT29 colon): > 100 µM
